Several values for one entry are separate records, joined by “and”; a condition that tells them apart may be missing. Identical values can stand only once. Like-named read-outs stand apart in the source and are kept apart here.
How the values were obtained:
[1] = system: HCV RNA in stably HCV RNA-replicating cell line AVA5; assay: Primary in vitro anti-HCV screen: intracellular HCV RNA levels in AVA5 cells (branched DNA assay); format: cell-based, Hepatitis C virus; settings: for HCV % Control / HCV Copies/ml: AVA5, duplicate cultures
Experimental: Primary in vitro anti-HCV screen. The antiviral activity of test compounds were assayed in the stably HCV RNA-replicating cell line, AVA5, derived by transfection of the human hepatoblastoma cell line, Huh7 (Blight, et al., 2000, Science 290: 1972). The test compounds were added to dividing cultures once daily for three days. The media was changed with each addition of the compounds. […] Intracellular HCV RNA levels and cytotoxicity are assessed 24 hours after the last dose of compound.
(§1) Assays were conducted using a single dose of test compound. Duplicate cultures for HCV RNA levels (on 48-well plates) and triplicate cultures for cytotoxicity (on 96-well plates) are used.
(§2) Intracellular HCV RNA levels were measured using a commercial assay (Veresant®, Bayer Diagnostics, Inc. Ross, et al. (2002) J. Virol. Meth. 101:159–168, Quantitation of hepatitic C virus RNA by third generation branched DNA-based signal amplification assay). Cytotoxicity was measured using an established neutral red dye uptake assay (Korba, B. E. and J. L. Gerin. 1992. Use of a standardized cell culture assay to determine activities of nucleoside analogs against hepatitis B virus relication. Antivir. Res. 19:55–70). HCV RNA levels in the treated cultures are expressed as a percentage of the mean levels of RNA detected in untreated cultures. A level of 30% or less, HCV RNA relative to control cultures may be considered to be a positive antiviral effect. A level of 50% or less, neutral red dye uptake relative to control cultures may be considered to be a cytotoxic effect.

[2] = system: HCV RNA-replicating cell line AVA5; assay: Normalized Viral Assay; format: cell-based, Hepatitis C virus
Experimental: (§3) Primary in vitro anti-HCV screen. The antiviral activity of test compounds were assayed in the stably HCV RNA-replicating cell line, AVA5, derived by transfection of the human hepatoblastoma cell line, Huh7 (Blight, et al., 2000, Science 290: 1972). The test compounds were added to dividing cultures once daily for three days. The media was changed with each addition of the compounds. Cultures generally start the assay at 30–50% confluence and reach confluence during the last day of treatment.

AVA5 cell line [3] = assay: MTS Cell Viability
AVA5 cells = assay: Secondary dose-response assay: cytotoxicity (CC50)
Experimental: (§4) Dividing cultures of AVA5 cells are treated once daily for three days (media is changed with each addition of compound) with 4 concentrations of test compound (2 cultures per concentration). […] Intracellular HCV RNA levels and cytotoxicity are assessed 24 hours following the last treatment as described for the primary assays. The 50% and 90% effective antiviral concentrations (EC50, EC90) and the 50% cytotoxic concentrations (CC50) are calculated and used to generate Selectivity Indexes (S.I., CC50/EC50). An S.I of 10, or greater, may be considered to be a selective antiviral effect.
(§5) The values presented in Table 6 were calculated by linear regression analysis using data from all treated cultures. The standard deviation was calculated using the error of regression generated from the linear regression analysis.

[4] = system: AVA5 cell line (derived from human hepatoblastoma cell line Huh7); assay: Primary screen cytotoxicity: neutral red dye uptake; format: cell-based; settings: AVA5
Experimental: as §3, §1, §2

AVA5 cell line [5] = assay: ATP Cell Viability
[6] = system: HCV replicons in AVA5 cell cultures; assay: Secondary in vitro anti-HCV dose-response assay: intracellular HCV RNA; set-up: Intracellular HCV RNA Levels: dose or concentration left out as unconfirmed; settings: for Intracellular HCV RNA Levels: normalized to β-actin RNA
Experimental: as §4, §5
Analysis of intracellular HCV RNA was performed 24 hours following the final treatment. A total of […] were treated a each concentration for each compound. HCV RNA levels were normalized to the level of β-actin RNA in each individual sample.

[7] = AVA5, HCV RNA, linear regression
[8] = AVA5, values for α-interferon in IU/ml

| Molecule | Normalized Viral Assay ([2]; 1 μM) | Normalized Viral Assay ([2]; 5 μM) | Normalized Viral Assay ([2]; 10 μM) | MTS Cell Viability (AVA5 cell line [3]; 1 μM) | MTS Cell Viability (AVA5 cell line [3]; 5 μM) | MTS Cell Viability (AVA5 cell line [3]; 10 μM) | ATP Cell Viability (AVA5 cell line [5]; 1 μM) | ATP Cell Viability (AVA5 cell line [5]; 5 μM) | ATP Cell Viability (AVA5 cell line [5]; 10 μM) | Intracellular HCV RNA Levels [6]; 10 [genomic copies/cell] | Intracellular HCV RNA Levels [6]; 30 [genomic copies/cell] | Intracellular HCV RNA Levels [6]; 100 [genomic copies/cell] | Intracellular HCV RNA Levels [6]; 300 [genomic copies/cell] | EC50 [6, 7] [µM] | EC90 [6, 7] [µM] | S.I. (CC50/EC90) ([6]; selectivity index, AVA5) | further results |
| --- | --- | --- | --- | --- | --- | --- | --- | --- | --- | --- | --- | --- | --- | --- | --- | --- | --- |
| O=c1cc(Sc2ccc(F)cc2F)c2cc(F)ccc2o1 [compound 910] | 32.93 | 9.51 | 3.41 | 105.74 | 92.64 | 79.43 | 115.34 | 97.48 | 84.78 | 1176970 ± 27620 | 494605 ± 6235 | 163575 ± 6325 | 58165 ± 7635 | 1.4 ± 0.1 | 12 ± 1.1 | >214 | HCV % Control ([1]; 10 μM, HCV RNA as percentage of untreated cultures, listed as VQ_910): 20 % Control and 18 % Control; HCV Copies/ml ([1]; 10 μM, once daily for three days, listed as VQ_910): 266217 Copies/ml and 246717 Copies/ml; CC50 (AVA5 cells; AVA5, three days treatment, linear regression): > 300 µM; Neutral Red % Control ([4]; 10 μM, dye uptake relative to untreated cultures, listed as VQ_910): 99 % Control and 103 % Control; Neutral Red O.D. ([4]; 10 μM, listed as VQ_910): 2.214 O.D. and 2.293 O.D. |
| O=c1cc(Sc2ccccc2F)c2cc(F)ccc2o1 [compound 904] | 50.52 | 37.87 | 9.27 | 116.41 | 108.04 | 86.22 | 107.54 | 100.32 | 74.11 | – | – | – | – | – | – | – | HCV % Control ([1]; 10 μM, HCV RNA as percentage of untreated cultures, listed as VQ_904): 79 % Control and 75 % Control; HCV Copies/ml ([1]; 10 μM, once daily for three days, listed as VQ_904): 1072174 Copies/ml and 1013181 Copies/ml; Neutral Red % Control ([4]; 10 μM, dye uptake relative to untreated cultures, listed as VQ_904): 100 % Control and 101 % Control; Neutral Red O.D. ([4]; 10 μM, listed as VQ_904): 2.237 O.D. and 2.255 O.D. |
| Cc1cc(C)cc(Sc2c(Sc3cccc(Cl)c3)c3ccccc3oc2=O)c1 [compound 468] | 72.14 | 35.09 | 18.06 | – | – | – | – | – | – | 1317765 ± 55645 | 473805 ± 21625 | 194410 ± 7620 | 56535 ± 8005 | 1.2 ± 0.1 | 8.3 ± 0.6 | – | CC50 (AVA5 cells): > 300 µM; S.I. (CC50/EC90) [6]: >250 |
| O=c1cc(Sc2ccccc2Cl)c2cc(F)ccc2o1 [compound 894] | 35.65 | 9.04 | 6.84 | 104.53 | 83.91 | 81.24 | 113.25 | 109.42 | 58.26 | – | – | – | – | – | – | – | HCV % Control ([1]; 10 μM, HCV RNA as percentage of untreated cultures, listed as VQ_894): 95 % Control and 84 % Control; HCV Copies/ml ([1]; 10 μM, once daily for three days, listed as VQ_894): 1277826 Copies/ml and 1128325 Copies/ml; Neutral Red % Control ([4]; 10 μM, dye uptake relative to untreated cultures, listed as VQ_894): 100 % Control and 101 % Control; Neutral Red O.D. ([4]; 10 μM, listed as VQ_894): 2.234 O.D. and 2.257 O.D. |
| α-interferon | – | – | – | – | – | – | – | – | – | – | – | – | – | – | – | >5556 | HCV % Control ([1]; 10 IU/ml, listed as rHu α-IFN): 5 % Control and 6 % Control; HCV Copies/ml ([1]; 10 IU/ml, listed as rHu α-IFN): 71460 Copies/ml and 85467 Copies/ml; effect on HCV RNA (treatment controls, in words) ([1]; at the control concentrations used): induced significant depressions of HCV RNA replication; approximate EC90 ([1]; positive antiviral control, no cytotoxicity): ~10 IU/ml; CC50 (AVA5 cells; [8]): >10000^1,2 IU/ml; Neutral Red % Control ([4]; 10 IU/ml, listed as rHu α-IFN): 99 % Control and 103 % Control; Neutral Red O.D. ([4]; 10 IU/ml, listed as rHu α-IFN): 2.217 O.D. and 2.291 O.D.; Intracellular HCV RNA Levels ([6]; 1.0 IU/ml): 1169765 ± 37135 genomic copies/cell; Intracellular HCV RNA Levels ([6]; 3.0 IU/ml): 329605 ± 26035 genomic copies/cell; Intracellular HCV RNA Levels ([6]; 10 IU/ml): 103060 ± 14470 genomic copies/cell; EC50 [6, 8]: 1.8 ± 0.2^1 IU/ml; EC90 [6, 8]: 8.2 ± 0.6^1 IU/ml |
| O=c1cc(Sc2ccc(F)cc2Cl)c2cc(F)ccc2o1 [compound 899] | 40.10 | 10.66 | 10.32 | 106.10 | 90.22 | 85.37 | 102.77 | 112.43 | 105.60 | – | – | – | – | – | – | – | HCV % Control ([1]; 10 μM, HCV RNA as percentage of untreated cultures, listed as VQ_899): 66 % Control and 65 % Control; HCV Copies/ml ([1]; 10 μM, once daily for three days, listed as VQ_899): 886875 Copies/ml and 873484 Copies/ml; Neutral Red % Control ([4]; 10 μM, dye uptake relative to untreated cultures, listed as VQ_899): 100 % Control and 102 % Control; Neutral Red O.D. ([4]; 10 μM, listed as VQ_899): 2.237 O.D. and 2.286 O.D. |

From patent publication US7148253B2, “4-thio coumarins” (priority 2002, dated 2006)
